Reference: patent US20260285850A1, “SUBSTITUTED OXAZOLIDINONES AND IMIDAZOLINONES AS HERBICIDES” (FMC CORPORATION, priority 2023, published 2026)

What was measured:
Assay type in all cases: in vivo
[1] = system: rice (Oryza sativa); experiment: Test B flooded paddy test, visual plant response rating 0-100; conditions: 250 g ai/ha, Flood, applied to paddy water, evaluated after 13 days
Outline: (§1)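 Plants were grown to the 2-leaf stage, then pots were flooded to 3 cm above the soil and compound was applied directly to the paddy water, with that depth kept throughout.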

[2] = system: barnyardgrass (Echinochloa crusgalli); experiment: as above; conditions: 250 g ai/ha, Flood, applied to paddy water, evaluated after 13 days
Outline: as §1

[3] = system: sedge, umbrella (small-flower umbrella sedge, Cyperus difformis); experiment: as above; conditions: 250 g ai/ha, Flood, applied to paddy water, evaluated after 13 days
Outline: as §1

[4] = system: ducksalad (Heteranthera limosa); experiment: as above; conditions: 250 g ai/ha, Flood, applied to paddy water, evaluated after 13 days
Outline: as §1

[5] = system: wheat (Triticum aestivum); experiment: Test A postemergence application, visual injury rating 0-100; conditions: for Wheat plant response rating (0-100): postemergence, 0 = no effect, 100 = complete control; for Wheat plant response rating (0 to 100 scale): Postemergence
Outline: (§2)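 Visual injury ratings (0, no effect; 100, complete control) were assigned relative to untreated plants 10 days after treatment. Test chemicals, formulated with a surfactant-containing non-phytotoxic solvent, were applied in loam-sand soil either as a directed soil spray before emergence or to emerged plants, and plants were kept in a greenhouse.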

[6] = system: green foxtail (Setaria viridis); experiment: as above; conditions: for Foxtail, Green plant response rating (0-100): postemergence, 0 = no effect, 100 = complete control; for Foxtail, Green plant response rating (0 to 100 scale): Postemergence
Outline: as §2

[7] = system: soybean (Glycine max); experiment: as above; conditions: for Soybean plant response rating (0-100): postemergence, 0 = no effect, 100 = complete control; for Soybean plant response rating (0 to 100 scale): Postemergence
Outline: as §2

[8] = system: barnyardgrass (Echinochloa crus-galli); experiment: as above; conditions: for Barnyardgrass plant response rating (0-100): postemergence, 0 = no effect, 100 = complete control; for Barnyardgrass plant response rating (0 to 100 scale): Postemergence
Outline: as §2

[9] = system: horseweed (Erigeron canadensis); experiment: as above; conditions: for Horseweed plant response rating (0-100): postemergence, 0 = no effect, 100 = complete control; for Horseweed plant response rating (0 to 100 scale): Postemergence
Outline: as §2

[10] = system: ragweed (common ragweed, Ambrosia artemisiifolia); experiment: as above; conditions: for Ragweed plant response rating (0-100): postemergence, 0 = no effect, 100 = complete control; for Ragweed plant response rating (0 to 100 scale): Postemergence
Outline: as §2

[11] = system: galium (catchweed bedstraw, Galium aparine); experiment: as above; conditions: for Galium plant response rating (0 to 100 scale): Postemergence
Outline: as §2

[12] = system: oat, wild (wild oat, Avena fatua); experiment: as above; conditions: for Oat, Wild plant response rating (0-100): postemergence, 0 = no effect, 100 = complete control; for Oat, Wild plant response rating (0 to 100 scale): Postemergence
Outline: as §2

[13] = system: blackgrass (Alopecurus myosuroides); experiment: as above; conditions: for Blackgrass plant response rating (0-100): postemergence, 0 = no effect, 100 = complete control; for Blackgrass plant response rating (0 to 100 scale): Postemergence
Outline: as §2

[14] = system: palmer (palmer amaranth, palmer pigweed, Amaranthus palmeri); experiment: as above
Outline: as §2

[15] = system: ryegrass, Italian (italian ryegrass, Lolium multiflorum); experiment: as above; conditions: for Ryegrass, Italian plant response rating (0-100): postemergence, 0 = no effect, 100 = complete control; for Ryegrass, Italian plant response rating (0 to 100 scale): Postemergence
Outline: as §2

[16] = system: corn (Zea mays); experiment: as above; conditions: for Corn plant response rating (0-100): postemergence, 0 = no effect, 100 = complete control; for Corn plant response rating (0 to 100 scale): Postemergence
Outline: as §2

[17] = system: kochia (Bassia scoparia); experiment: as above; conditions: for Kochia plant response rating (0-100): postemergence, 0 = no effect, 100 = complete control; for Kochia plant response rating (0 to 100 scale): Postemergence
Outline: as §2

[18] = system: wheat (Triticum aestivum); experiment: Test A preemergence soil spray, visual injury rating 0-100; conditions: 10 days
Outline: as §2

[19] = system: green foxtail (Setaria viridis); experiment: as above; conditions: 10 days
Outline: as §2

[20] = system: soybean (Glycine max); experiment: as above; conditions: 10 days
Outline: as §2

[21] = system: barnyardgrass (Echinochloa crus-galli); experiment: as above; conditions: 10 days
Outline: as §2

[22] = system: ragweed (common ragweed, Ambrosia artemisiifolia); experiment: as above; conditions: 10 days
Outline: as §2

[23] = system: oat, wild (wild oat, Avena fatua); experiment: as above; conditions: 10 days
Outline: as §2

[24] = system: blackgrass (Alopecurus myosuroides); experiment: as above; conditions: 10 days
Outline: as §2

[25] = system: palmer (palmer amaranth, palmer pigweed, Amaranthus palmeri); experiment: as above; conditions: 10 days
Outline: as §2

[26] = system: corn (Zea mays); experiment: as above; conditions: 10 days
Outline: as §2

[27] = system: kochia (Bassia scoparia); experiment: as above; conditions: 10 days, 0 = no effect, 100 = complete control
Outline: as §2

[28] = system: ryegrass, Italian (italian ryegrass, Lolium multiflorum); experiment: as above; conditions: 10 days
Outline: as §2

[29] = 125 g ai/ha, 10 days, 0 is no effect, 100 is complete control
[30] = 31 g ai/ha, postemergence, 10 days, 0 = no effect, 100 = complete control
[31] = 31 g ai/ha, 0 = no effect, 100 = complete control
[32] = 125 g ai/ha, 0 = no effect, 100 = complete control
[33] = 16 g ai/ha, greenhouse 10 days, 0 no effect, 100 complete control
[34] = 62 g ai/ha, 0 = no effect, 100 = complete control

CC1(C(=O)NC2C=CC(C(=O)O)C2)CN(c2cc(F)cc(Cl)c2)C(=O)O1 (stereo not drawn) [Compound 6]
20: Barnyardgrass plant response rating (0-100) [21, 31]
95: Plant response rating, Sedge, Umbrella (0 to 100 scale, 0 is no effect and 100 is complete control) [3] | Plant response rating, Ducksalad (0 to 100 scale, 0 is no effect and 100 is complete control) [4]
50: Wheat plant response rating (0-100) [18, 31] | Foxtail, Green plant response rating (0-100) [19, 31] | Soybean plant response rating (0-100) [20, 31]
60: Ragweed plant response rating (0-100) ([10]; 31 g ai/ha, 10 days) | Blackgrass plant response rating (0 to 100 scale) [24, 32] | Amaranth, Palmer plant response rating (0-100) [25, 31]
30: Oat, Wild plant response rating (0-100) [23, 31] | Blackgrass plant response rating (0-100) [24, 31] | Corn plant response rating (0-100) [26, 31]
0: Ragweed plant response rating (0-100) [22, 31]
80: Soybean plant response rating (0-100) ([7]; 31 g ai/ha, 10 days) | Soybean plant response rating (0 to 100 scale) [7, 29] | Ragweed plant response rating (0 to 100 scale) [10, 29] | Galium plant response rating (0-100) [11, 30] | Galium plant response rating (0 to 100 scale) [11, 29] | Blackgrass plant response rating (0-100) ([13]; 31 g ai/ha, 10 days) | Ryegrass, Italian plant response rating (0-100) ([15]; 31 g ai/ha, 10 days) | Kochia plant response rating (0-100) ([17]; 31 g ai/ha, 10 days) | Kochia plant response rating (0 to 100 scale) [17, 29] | Soybean plant response rating (0 to 100 scale) [20, 32]
35: Plant response rating, Rice (0 to 100 scale, 0 is no effect and 100 is complete control) [1]
70: Plant response rating, Barnyardgrass (0 to 100 scale, 0 is no effect and 100 is complete control) [2]
40: Horseweed plant response rating (0-100) ([9]; 31 g ai/ha, 10 days) | Ragweed plant response rating (0 to 100 scale) [22, 32]
100: Barnyardgrass plant response rating (0-100) ([8]; 31 g ai/ha, 10 days) | Barnyardgrass plant response rating (0 to 100 scale) [8, 29] | Oat, Wild plant response rating (0 to 100 scale) [12, 29] | Corn plant response rating (0-100) ([16]; 31 g ai/ha, 10 days) | Corn plant response rating (0 to 100 scale) [16, 29] | Foxtail, Green plant response rating (0 to 100 scale) [19, 32] | Barnyardgrass plant response rating (0 to 100 scale) [21, 32] | Kochia plant response rating (0-100) ([27]; 31 g ai/ha) | Kochia plant response rating (0 to 100 scale) ([27]; 125 g ai/ha)
90: Wheat plant response rating (0-100) ([5]; 31 g ai/ha, 10 days) | Wheat plant response rating (0 to 100 scale) [5, 29] | Foxtail, Green plant response rating (0-100) ([6]; 31 g ai/ha, 10 days) | Foxtail, Green plant response rating (0 to 100 scale) [6, 29] | Horseweed plant response rating (0 to 100 scale) [9, 29] | Oat, Wild plant response rating (0-100) ([12]; 31 g ai/ha, 10 days) | Blackgrass plant response rating (0 to 100 scale) [13, 29] | Amaranth, Palmer plant response rating (0-100) [14, 30] | Amaranth, Palmer / Pigweed, Palmer plant response rating (0 to 100 scale) ([14]; Postemergence, 125 g ai/ha, 10 days, 0 is no effect, 100 is complete control) | Ryegrass, Italian plant response rating (0 to 100 scale) [15, 29] | Wheat plant response rating (0 to 100 scale) [18, 32] | Oat, Wild plant response rating (0 to 100 scale) [23, 32] | Amaranth, Palmer plant response rating (0 to 100 scale) [25, 32] | Corn plant response rating (0 to 100 scale) [26, 32]

COC(=O)C1=CCC(NC(=O)C2(C)CN(c3cc(Cl)cc(Cl)c3)C(=O)O2)C1 (stereo not drawn) [Compound 148]
10: Wheat plant response rating (0 to 100 scale) [5, 33] | Oat, Wild plant response rating (0-100) ([12]; 62 g ai/ha, 10 days) | Pigweed, Palmer plant response rating (0 to 100 scale) ([14]; Postemergence, 16 g ai/ha, greenhouse 10 days, 0 no effect, 100 complete control)
80: Pigweed, Palmer plant response rating (0-100) ([14]; 62 g ai/ha, postemergence, 10 days, 0 = no effect, 100 = complete control) | Kochia plant response rating (0-100) ([17]; 62 g ai/ha, 10 days)
70: Blackgrass plant response rating (0-100) ([13]; 62 g ai/ha, 10 days) | Corn plant response rating (0-100) ([16]; 62 g ai/ha, 10 days)
30: Wheat plant response rating (0-100) ([5]; 62 g ai/ha, 10 days) | Foxtail, Green plant response rating (0-100) ([6]; 62 g ai/ha, 10 days)
0: Plant response rating, Rice (0 to 100 scale, 0 is no effect and 100 is complete control) [1] | Plant response rating, Barnyardgrass (0 to 100 scale, 0 is no effect and 100 is complete control) [2] | Plant response rating, Sedge, Umbrella (0 to 100 scale, 0 is no effect and 100 is complete control) [3] | Plant response rating, Ducksalad (0 to 100 scale, 0 is no effect and 100 is complete control) [4] | Foxtail, Green plant response rating (0 to 100 scale) [6, 33] | Soybean plant response rating (0 to 100 scale) [7, 33] | Barnyardgrass plant response rating (0 to 100 scale) [8, 33] | Horseweed plant response rating (0-100) ([9]; 62 g ai/ha, 10 days) | Horseweed plant response rating (0 to 100 scale) [9, 33] | Ragweed plant response rating (0-100) ([10]; 62 g ai/ha, 10 days) | Ragweed plant response rating (0 to 100 scale) [10, 33] | Oat, Wild plant response rating (0 to 100 scale) [12, 33] | Blackgrass plant response rating (0 to 100 scale) [13, 33] | Ryegrass, Italian plant response rating (0 to 100 scale) [15, 33] | Corn plant response rating (0 to 100 scale) [16, 33] | Kochia plant response rating (0 to 100 scale) [17, 33] | Wheat plant response rating ([18]; 16 g ai/ha, 0 to 100 scale) | Wheat plant response rating (0-100) [18, 34] | Foxtail, Green plant response rating ([19]; 16 g ai/ha, 0 to 100 scale) | Foxtail, Green plant response rating (0-100) [19, 34] | Soybean plant response rating ([20]; 16 g ai/ha, 0 to 100 scale) | Barnyardgrass plant response rating ([21]; 16 g ai/ha, 0 to 100 scale) | Barnyardgrass plant response rating (0-100) [21, 34] | Ragweed plant response rating ([22]; 16 g ai/ha, 0 to 100 scale) | Ragweed plant response rating (0-100) [22, 34] | Oat, Wild plant response rating ([23]; 16 g ai/ha, 0 to 100 scale) | Oat, Wild plant response rating (0-100) [23, 34] | Blackgrass plant response rating ([24]; 16 g ai/ha, 0 to 100 scale) | Blackgrass plant response rating (0-100) [24, 34] | Pigweed, Palmer plant response rating ([25]; 16 g ai/ha, 0 to 100 scale) | Pigweed, Palmer plant response rating (0-100) [25, 34] | Ryegrass, Italian plant response rating ([28]; 16 g ai/ha, 0 to 100 scale) | Ryegrass, Italian plant response rating (0-100) [28, 34] | Corn plant response rating ([26]; 16 g ai/ha, 0 to 100 scale) | Corn plant response rating (0-100) [26, 34]
20: Soybean plant response rating (0-100) [20, 34]
40: Galium plant response rating (0 to 100 scale) [11, 33]
90: Barnyardgrass plant response rating (0-100) ([8]; 62 g ai/ha, 10 days)
50: Soybean plant response rating (0-100) ([7]; 62 g ai/ha, 10 days) | Ryegrass, Italian plant response rating (0-100) ([15]; 62 g ai/ha, 10 days)
